Tested on: cancer in type 2 diabetic patients
Experiment: Hazard ratios of drug use for cancer, 5-year prospective cohort (Hong Kong Diabetes Registry)
Type: in vivo, Chinese type 2 diabetic patients
Conditions: patients who did not use the drug 2.5 yr prior to enrolment
[1] = Model 1, adjusted for propensity scores
[2] = Model 2, adjusted for risk factors, use of other medications during follow-up and propensity score

Compound | HR(95% CI) for cancer, users versus non user [1] | HR(95% CI) for cancer, users versus non user [2]
O=C1CSC(=O)N1 [TZDs, Thiazolidinedione] | 0.12(0.03-0.50) | 0.18(0.04-0.72)
Insulin | 0.48(0.31-0.73) | 0.58(0.38-0.89)
CN(C)C(=N)N=C(N)N [Metformin] | 0.38(0.25-0.56) | 0.39(0.25-0.61)

— patent US10689702B2, “Biomarkers for diabetes” (The Chinese University of Hong Kong, priority 2012, dated 2020)
